Measured values from patent US20190307749A1, “Mitochondria-Division Inhibitor 1 Protects Against Amyloid-B Induced Mitochondrial Fragmentation and Synaptic Damage in Alzheimer's Disease” (Texas Tech University System, priority 2018, published 2019).
Marks after values point to notes of the source that are not given here.

Columns and labels:
[1] = tested on: mouse neuroblastoma (N2a) cells; assay: Quantitative real-time RT-PCR: mRNA expression of mitochondrial dynamics, biogenesis and synaptic genes; assay type: cell-based; settings: N2a cells
Procedure: (§1) Tissue culture: The N2a cells were grown for 3 days in a serum-free medium (1:1 mixture of DMEM and OptiMEM, plus penicillin and streptomycin [Invitrogen, Carlsbad, Calif., USA]) until the cells developed neuronal processes.
Quantitative real-time RT-PCR: Using the reagent TriZol (Invitrogen), total RNA was isolated from cell pellets from the 5 N2a cell groups (FIG. 1). Using primer express software (Applied Biosystems, Carlsbad, Calif., USA), the inventors designed the oligonucleotide primers for the housekeeping genes 3-actin, GAPDH, mitochondrial structural genes, fission genes (Drp1, Fis1), fusion genes (MFN1, MFN2, Opa1), biogenesis genes (PGC1c, Nrf1, Nrf2, TFAM), and synaptic genes (synaptophysin and PSD95) (see Table 1 for primer sequences and amplicon sizes). Using SYBR-Green chemistry-based quantitative real-time RT-PCR, mRNA expressions of the above-mentioned genes were measured, as described by Manczak and Reddy.
The mRNA transcript level was normalized against β-actin and the GAPDH at each dilution. The standard curve was the normalized mRNA transcript level, plotted against the log-value of the input cDNA concentration at each dilution. To compare β-actin, GAPDH, and relative quantification was performed according to the (CT) method (Applied Biosystems). […] The ΔCT-value was obtained by subtracting the average β-actin CT value from the average CT-value of the synaptic mitochondrial ETC genes and the mitochondrial structural genes. The ΔCT of untreated cells was used as the calibrator. The fold change was calculated according to the formula 2^-(Δ ΔCT), where ΔΔCT is the difference between ΔCT and the ΔCT calibrator value. To determine the statistical significance of mRNA expression, the CT value differences between the untreated cells and other experimental groups of cells were used in relation to β-actin normalization. Statistical significance was calculated, using one-way ANOVA.

[2] = tested on: mouse neuroblastoma (N2a) cells; assay: as above; assay type: cell-based; settings: vs Aβ42 treated cells
[3] = tested on: N2a cells; assay: Lipid peroxidation assay (4-hydroxy-2-nonenol, HNE-His ELISA); assay type: cell-based, mouse
Procedure: as §1
Lipid peroxidation assay: Lipid peroxidates are unstable indicators of oxidative stress in the brain. The final product of lipid peroxidation is 4-hydroxy-2-nonenol (HNE), which was measured in the N2a cell lysates prepared from cell pellets of control and treatment groups. The inventors used an HNE-His ELISA kit (Cell BioLabs, Inc., San Diego, Calif., USA), as described in Manczak and Reddy. Briefly, freshly prepared protein as added to a 96-well protein binding plate and incubated overnight at 4° C. The protein then washed 3 times with a buffer. After the last wash, the anti-HNE-His antibody was added to the protein in the wells, incubated for 2 hours at room temperature, and then washed again 3 times. The samples were then incubated with a secondary antibody conjugated with peroxidase for 2 hours at room temperature, followed by incubation with an enzyme substrate. Optical density was measured (at 450 nm) to quantify the level of HNE.

[4] = tested on: N2a cell mitochondria; assay: Mitochondrial ATP levels (luciferase bioluminescence); assay type: cell-based, mouse; settings: N2a cells
Procedure: as §1
ATP levels: ATP levels were measured in N2a cell mitochondria from the treatment groups using an ATP determination kit (Molecular Probes). A bioluminescence assay was used, based on the reaction of ATP with recombinant firefly luciferase and its substract luciferin. Luciferase catalyzes the formation of light from ATP and luciferin. It is the emitted light that is linearly related to the concentration of ATP, which is measured with a luminometer. ATP levels were measured from mitochondrial pellets using a standard curve method.

[5] = tested on: N2a cells; assay: Cell viability (MTT assay); assay type: cell-based, mouse
Procedure: as §1
The N2a cells from all 5 groups (4 treatment groups and 1 control group) were harvested, and their cell pellets were collected and used for quantitative real-time RT-PCR, immunoblotting analysis of mitochondrial and synaptic proteins, and mitochondrial functional assays for hydrogen peroxide production, lipid peroxidation, cytochrome c oxidase activity, and MTT determination. Isolated mitochondria from N2a cells from all 5 groups were used to determine mitochondrial ATP as described in Reddy et al..

[6] = Aβ42 6 hrs then Mdivi1 24 hrs (Aβ42+Mdivi1), vs Aβ42 treated cells
[7] = Aβ42 6 hrs then Mdivi1 24 hrs (Aβ42+Mdivi1), vs untreated N2a cells
[8] = Mdivi1 24 hrs or Aβ42 20 μM 6 hrs alone, vs untreated N2a cells
[9] = Mdivi1 24 hrs then Aβ42 6 hrs (Mdivi1+Aβ42), vs Aβ42 treated cells
[10] = Mdivi1 24 hrs then Aβ42 6 hrs (Mdivi1+Aβ42), vs untreated N2a cells
[11] = Aβ42 6 hrs then Mdivi1 24 hrs (Aβ42+Mdivi1)

COc1cc(-n2c(S)nc3ccccc3c2=O)c(Cl)cc1Cl [Mdivi1, 3-(2,4-Dichloro-5-methoxyphenyl)-2,3-dihydro-2-thioxo-4(1H)-quinazolinone]
Drp1 mRNA expression level, lower by fold [1, 6]: 1.5 fold | Drp1 mRNA fold change [1, 6]: −1.5* fold | Fis1 mRNA expression level, lower by fold [1, 6]: 1.7 fold | Fis1 mRNA fold change [1, 6]: −1.7* fold | Mfn1 mRNA fold change [1, 6]: 1.6 fold | Mfn2 mRNA fold change [1, 6]: 1.6 fold | Nrf1 mRNA fold change [1, 6]: 2.0 fold | OPA1 mRNA fold change [1, 6]: 1.3 fold | PGC1α mRNA fold change [1, 6]: 8.1 fold | Synaptophysin mRNA fold change [1, 6]: 1.5 fold | CypD mRNA level [1, 7]: unchanged | PGC1α mRNA fold change [1, 7]: 1.4 fold | PSD95 mRNA fold change [1, 7]: 4.8 fold | Synaptophysin mRNA fold change [1, 7]: 1.2 fold | TFAM mRNA fold change [1, 7]: 1.2 fold | Drp1 mRNA fold change [1, 8]: −1.5* fold | Drp1 mRNA level, fold decrease [1, 8]: 1.5 fold | Fis1 mRNA fold change [1, 8]: −1.3 fold | Fis1 mRNA level, fold decrease [1, 8]: 1.3 fold | Mfn1 mRNA fold change [1, 8]: 1.3 fold | Mfn2 mRNA fold change [1, 8]: 1.2 fold | Nrf1 mRNA fold change [1, 8]: 2.2 fold | Nrf2 mRNA fold change [1, 8]: 1.6 fold | OPA1 mRNA fold change [1, 8]: 1.2 fold | PGC1α mRNA fold change [1, 8]: 2.2 fold | PSD95 mRNA fold change [1, 8]: 5.1 fold | Synaptophysin mRNA fold change [1, 8]: 1.3 fold | TFAM mRNA fold change [1, 8]: 1.5 fold | Drp1 mRNA expression level, lower by fold [1, 9]: 1.5 fold | Drp1 mRNA fold change [1, 9]: −1.5* fold | Fis1 mRNA expression level, lower by fold [1, 9]: 1.6 fold | Fis1 mRNA fold change [1, 9]: −1.6* fold | Mfn2 mRNA fold change [1, 9]: 2.2 fold | Nrf1 mRNA fold change [1, 9]: 2.7 fold | Nrf2 mRNA fold change [1, 9]: 2.7 fold | OPA1 mRNA fold change [1, 9]: 2.3 fold | PGC1α mRNA fold change [1, 9]: 6.5 fold | PSD95 mRNA fold change [1, 9]: 3.8 fold | Synaptophysin mRNA fold change [1, 9]: 2.2 fold | TFAM mRNA fold change [1, 9]: 3.2 fold | Drp1 mRNA fold change [1, 10]: −1.1 fold | Fis1 mRNA fold change [1, 10]: −1.2 fold | Mfn1 mRNA fold change [1, 10]: 2.1 fold | Mfn2 mRNA fold change [1, 10]: 1.7 fold | Nrf1 mRNA fold change [1, 10]: 1.3 fold | Nrf2 mRNA fold change [1, 10]: 1.3 fold | OPA1 mRNA fold change [1, 10]: 1.9 fold | PGC1α mRNA fold change [1, 10]: 1.1 fold | PSD95 mRNA fold change [1, 10]: 1.5 fold | Synaptophysin mRNA fold change [1, 10]: 1.7 fold | TFAM mRNA fold change [1, 10]: 1.3 fold | Nrf2 mRNA fold change [2, 11]: 2.0 fold | PSD95 mRNA fold change [2, 11]: 8.6 fold | TFAM mRNA fold change [2, 11]: 2.9 fold | Mfn1 mRNA fold change ([2]; Mdivi1 24 hrs then Aβ42 6 hrs (Mdivi1+Aβ42)): 2.6 fold | Lipid peroxidation levels (4-hydroxy-2-nonenol) ([3]; Aβ42 6 hrs then Mdivi1 24 hrs (Aβ42+Mdivi1), vs N2a cells treated only with Aβ42): Significantly lower | Lipid peroxidation levels (4-hydroxy-2-nonenol) [3, 8]: significantly lower | Lipid peroxidation levels (4-hydroxy-2-nonenol) ([3]; Mdivi1 24 hrs then Aβ42 6 hrs (Mdivi1+Aβ42), vs N2a cells treated only with Aβ42): Significantly lower | Mitochondrial ATP levels ([4]; Aβ42 6 hrs then Mdivi1 24 hrs (Aβ42+Mdivi1), vs Aβ42-treated N2a cells (FIG. 7B)): Significantly higher | Mitochondrial ATP levels [4, 8]: Significantly increased | Mitochondrial ATP levels ([4]; Mdivi1 24 hrs then Aβ42 6 hrs (Mdivi1+Aβ42), vs Aβ42-treated N2a cells (FIG. 7B)): Significantly higher | Cell viability ([5]; Aβ42 6 hrs then Mdivi1 24 hrs (Aβ42+Mdivi1), vs N2a+Aβ42): higher | Cell viability [5, 8]: significantly higher | Cell viability ([5]; Mdivi1 24 hrs then Aβ42 6 hrs (Mdivi1+Aβ42), vs N2a+Aβ42): higher
